ChEMBL document CHEMBL1148572, “1-((S)-2-aminopropyl)-1H-indazol-6-ol: a potent peripherally acting 5-HT2 receptor agonist with ocular hypotensive activity” (J Med Chem, 2006)

Assays:
[1] = target: 5-hydroxytryptamine receptor 2B (Homo sapiens, UniProt P41595); experiment: biochemical
Description: Displacement of [125I]DOI from cloned human 5HT2B receptor expressed in CHO cells

[2] = target: T1, Endothelin-1 receptor (Homo sapiens) (UniProt P25101); experiment: Inhibition of human recombinant endothelin 1 receptor at 10 uM
T1 sequence (whole entry): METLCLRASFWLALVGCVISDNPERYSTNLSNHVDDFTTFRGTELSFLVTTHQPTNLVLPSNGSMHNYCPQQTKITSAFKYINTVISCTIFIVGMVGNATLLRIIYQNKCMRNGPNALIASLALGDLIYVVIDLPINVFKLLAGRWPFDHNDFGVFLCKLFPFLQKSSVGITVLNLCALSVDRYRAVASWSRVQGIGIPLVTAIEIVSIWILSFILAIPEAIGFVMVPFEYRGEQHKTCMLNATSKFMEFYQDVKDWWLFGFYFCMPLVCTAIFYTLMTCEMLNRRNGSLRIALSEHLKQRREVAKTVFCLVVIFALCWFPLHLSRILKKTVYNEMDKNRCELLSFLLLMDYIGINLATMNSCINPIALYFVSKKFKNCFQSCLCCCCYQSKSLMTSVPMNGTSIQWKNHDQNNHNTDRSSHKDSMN

[3] = target: 5-hydroxytryptamine receptor 2A (Rattus norvegicus, UniProt P14842); assay type: tissue-based, Cerebral cortex
[4] = target: T2, 5-hydroxytryptamine receptor 1A (Homo sapiens) (UniProt P08908); experiment: Inhibition of forskolin activated adenylate cyclase at 1 nM; assay type: functional
T2 sequence (whole entry): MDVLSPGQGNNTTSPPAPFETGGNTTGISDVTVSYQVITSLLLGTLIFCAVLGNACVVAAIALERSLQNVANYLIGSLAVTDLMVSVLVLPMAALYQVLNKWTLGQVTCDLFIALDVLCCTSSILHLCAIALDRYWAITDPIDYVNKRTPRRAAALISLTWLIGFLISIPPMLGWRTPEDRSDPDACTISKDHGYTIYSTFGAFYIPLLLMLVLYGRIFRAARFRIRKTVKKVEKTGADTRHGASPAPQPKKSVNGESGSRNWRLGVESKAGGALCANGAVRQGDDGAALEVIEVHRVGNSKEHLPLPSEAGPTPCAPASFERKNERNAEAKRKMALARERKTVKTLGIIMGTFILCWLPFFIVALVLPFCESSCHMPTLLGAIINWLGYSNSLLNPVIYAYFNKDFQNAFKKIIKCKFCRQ

[5] = target: T3, Leukotriene B4 receptor (Homo sapiens) (UniProt Q9NPC1+Q15722); experiment: Inhibition of leukotriene B4 at 10 uM; assay type: protein assay
[6] = target: Sigma non-opioid intracellular receptor 1 (Homo sapiens) (UniProt Q99720); experiment: Inhibition of non selective binding to sigma receptor at 10 uM
[7] = Inhibition of alpha-bungarotoxin insensitive nicotinic receptor at 1 nM
[8] = Inhibition of alpha-bungarotoxin insensitive nicotinic receptor at 10 uM
[9] = Inhibitory activity at site 2 of sodium channel at 100 nM
[10] = target: Glutamate receptor ionotropic AMPA (Homo sapiens) (UniProt P48058+P42263+P42262+P42261); experiment: Inhibition of AMPA receptor at 100 nM; assay type: protein-complex assay
[11] = target: GABA-A receptor; benzodiazepine site (Homo sapiens) (UniProt P14867+P18507+P48169+Q99928+P34903+Q8N1C3+P47869+P31644+Q16445); experiment: Inhibition of central benzodiazepine site on GABAA receptor at 10 uM; assay type: protein-complex assay
[12] = Inhibitory activity at calcium activated potassium channel 6 at 1 nM
[13] = target: 5-hydroxytryptamine receptor 1B (Homo sapiens, UniProt P28222); experiment: Inhibitory activity against 5HT1B receptor
[14] = target: Adenosine receptor (Homo sapiens) (UniProt P30542+P29275+P0DMS8+P29274); experiment: Inhibition of non selective binding to adenosine receptor at 100 nM; assay type: protein assay
[15] = target: T4, Cysteinyl leukotriene receptor 1 (Homo sapiens) (UniProt Q9Y271); experiment: Inhibition of leukotriene D4 at 10 uM
T4 sequence (whole entry): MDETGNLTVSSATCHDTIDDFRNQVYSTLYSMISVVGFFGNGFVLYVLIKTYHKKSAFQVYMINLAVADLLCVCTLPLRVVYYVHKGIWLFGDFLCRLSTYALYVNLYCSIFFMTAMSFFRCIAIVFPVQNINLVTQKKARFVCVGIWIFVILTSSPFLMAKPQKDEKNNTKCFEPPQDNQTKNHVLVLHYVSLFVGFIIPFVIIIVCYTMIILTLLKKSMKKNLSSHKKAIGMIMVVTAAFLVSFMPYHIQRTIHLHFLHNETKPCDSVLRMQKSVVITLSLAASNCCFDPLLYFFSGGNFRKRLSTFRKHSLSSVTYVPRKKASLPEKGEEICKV

[16] = target: T5, Androgen receptor (Homo sapiens) (UniProt P10275); experiment: Inhibition of testosterone receptor at 10 uM
T5 sequence (whole entry): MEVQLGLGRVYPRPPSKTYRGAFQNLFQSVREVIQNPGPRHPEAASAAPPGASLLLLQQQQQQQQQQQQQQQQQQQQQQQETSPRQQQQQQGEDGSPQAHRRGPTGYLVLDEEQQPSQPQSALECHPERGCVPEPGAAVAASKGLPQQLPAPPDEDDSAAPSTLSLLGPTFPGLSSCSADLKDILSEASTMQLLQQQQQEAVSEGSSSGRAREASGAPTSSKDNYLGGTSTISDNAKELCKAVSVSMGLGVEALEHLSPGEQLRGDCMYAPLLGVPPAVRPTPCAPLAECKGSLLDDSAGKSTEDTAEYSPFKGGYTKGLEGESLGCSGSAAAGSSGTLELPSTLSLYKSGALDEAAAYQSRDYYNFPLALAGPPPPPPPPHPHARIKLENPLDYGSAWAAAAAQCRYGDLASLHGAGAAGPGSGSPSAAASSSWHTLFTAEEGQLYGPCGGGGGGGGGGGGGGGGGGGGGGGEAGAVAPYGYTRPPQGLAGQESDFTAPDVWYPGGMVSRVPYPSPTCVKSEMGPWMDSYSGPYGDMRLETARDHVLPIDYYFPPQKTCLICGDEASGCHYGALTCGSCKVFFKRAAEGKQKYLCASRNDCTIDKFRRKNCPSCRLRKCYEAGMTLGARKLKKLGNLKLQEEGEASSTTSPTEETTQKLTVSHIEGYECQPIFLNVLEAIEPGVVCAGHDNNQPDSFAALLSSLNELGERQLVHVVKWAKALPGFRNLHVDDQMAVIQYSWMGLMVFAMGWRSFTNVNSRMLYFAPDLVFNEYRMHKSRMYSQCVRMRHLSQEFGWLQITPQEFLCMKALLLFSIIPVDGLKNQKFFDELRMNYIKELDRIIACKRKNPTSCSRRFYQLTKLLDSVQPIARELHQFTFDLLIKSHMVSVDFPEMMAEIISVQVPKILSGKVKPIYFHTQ

[17] = Inhibitory activity at calcium activated potassium channel 6 at 10 uM
[18] = target: Voltage-dependent N-type calcium channel subunit alpha-1B (Homo sapiens) (UniProt Q00975); experiment: Inhibitory activity at Calcium channel N type at 100 nM
[19] = target: T3, Leukotriene B4 receptor (Homo sapiens); experiment: Inhibition of leukotriene B4 at 1 nM; assay type: protein assay

T3 sequence (Q15722 whole entry, looked up): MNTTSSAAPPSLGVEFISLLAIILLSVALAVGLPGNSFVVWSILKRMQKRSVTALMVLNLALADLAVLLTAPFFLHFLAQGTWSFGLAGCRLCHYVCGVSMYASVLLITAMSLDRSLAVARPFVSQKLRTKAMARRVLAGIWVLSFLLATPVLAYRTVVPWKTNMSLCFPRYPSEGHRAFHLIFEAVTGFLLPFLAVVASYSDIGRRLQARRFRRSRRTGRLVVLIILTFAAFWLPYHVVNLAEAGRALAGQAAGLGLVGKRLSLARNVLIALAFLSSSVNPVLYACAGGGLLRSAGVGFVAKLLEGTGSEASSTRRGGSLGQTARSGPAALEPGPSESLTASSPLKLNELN
T3 sequence (Q9NPC1 whole entry, looked up): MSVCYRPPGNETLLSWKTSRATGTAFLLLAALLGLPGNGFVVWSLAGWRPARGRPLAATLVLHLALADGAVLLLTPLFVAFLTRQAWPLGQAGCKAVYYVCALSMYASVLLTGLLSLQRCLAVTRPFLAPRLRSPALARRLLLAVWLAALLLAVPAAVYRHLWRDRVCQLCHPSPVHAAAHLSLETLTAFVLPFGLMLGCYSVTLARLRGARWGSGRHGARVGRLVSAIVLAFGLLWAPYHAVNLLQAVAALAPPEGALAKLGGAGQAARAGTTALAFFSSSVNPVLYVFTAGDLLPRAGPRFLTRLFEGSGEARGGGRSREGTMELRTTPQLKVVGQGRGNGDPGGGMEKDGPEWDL
Chain of Sigma non-opioid intracellular receptor 1 (Homo sapiens) (Q99720 whole entry): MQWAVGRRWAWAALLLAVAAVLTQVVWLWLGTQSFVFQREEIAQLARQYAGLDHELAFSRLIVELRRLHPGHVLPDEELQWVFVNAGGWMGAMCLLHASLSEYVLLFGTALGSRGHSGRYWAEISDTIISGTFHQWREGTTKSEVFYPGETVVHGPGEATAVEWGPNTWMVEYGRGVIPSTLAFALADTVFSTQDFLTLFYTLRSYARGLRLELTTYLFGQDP
Chain of Adenosine receptor (Homo sapiens) (P0DMS8 whole entry, looked up): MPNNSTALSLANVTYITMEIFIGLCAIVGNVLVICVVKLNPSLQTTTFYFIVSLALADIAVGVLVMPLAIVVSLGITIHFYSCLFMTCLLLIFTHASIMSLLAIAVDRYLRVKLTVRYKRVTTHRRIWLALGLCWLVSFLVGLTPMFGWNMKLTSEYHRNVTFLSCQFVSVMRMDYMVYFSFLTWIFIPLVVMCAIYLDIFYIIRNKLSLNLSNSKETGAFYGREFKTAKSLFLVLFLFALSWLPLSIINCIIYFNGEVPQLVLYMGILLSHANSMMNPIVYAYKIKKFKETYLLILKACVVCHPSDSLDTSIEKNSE
Chain of Adenosine receptor (Homo sapiens) (P29274 whole entry, looked up): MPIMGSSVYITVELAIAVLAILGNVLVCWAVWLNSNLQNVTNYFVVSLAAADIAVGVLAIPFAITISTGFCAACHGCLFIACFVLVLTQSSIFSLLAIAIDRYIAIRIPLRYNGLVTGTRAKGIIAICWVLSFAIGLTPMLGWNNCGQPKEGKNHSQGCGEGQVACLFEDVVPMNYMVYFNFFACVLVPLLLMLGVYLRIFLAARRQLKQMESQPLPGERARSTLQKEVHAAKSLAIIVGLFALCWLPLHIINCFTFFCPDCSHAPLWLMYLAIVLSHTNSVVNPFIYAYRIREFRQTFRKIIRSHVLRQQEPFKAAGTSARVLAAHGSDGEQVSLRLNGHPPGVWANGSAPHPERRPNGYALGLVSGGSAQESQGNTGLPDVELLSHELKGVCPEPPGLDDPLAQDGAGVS
Chain of Adenosine receptor (Homo sapiens) (P29275 whole entry, looked up): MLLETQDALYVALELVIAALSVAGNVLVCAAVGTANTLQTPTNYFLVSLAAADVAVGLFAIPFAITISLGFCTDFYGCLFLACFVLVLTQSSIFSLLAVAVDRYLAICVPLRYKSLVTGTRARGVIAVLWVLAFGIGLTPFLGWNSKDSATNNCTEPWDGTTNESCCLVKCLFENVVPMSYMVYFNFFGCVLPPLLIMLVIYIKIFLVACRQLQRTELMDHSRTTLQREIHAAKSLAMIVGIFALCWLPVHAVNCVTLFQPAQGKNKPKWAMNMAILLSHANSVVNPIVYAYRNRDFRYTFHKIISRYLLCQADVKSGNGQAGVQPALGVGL
Chain of Adenosine receptor (Homo sapiens) (P30542 whole entry, looked up): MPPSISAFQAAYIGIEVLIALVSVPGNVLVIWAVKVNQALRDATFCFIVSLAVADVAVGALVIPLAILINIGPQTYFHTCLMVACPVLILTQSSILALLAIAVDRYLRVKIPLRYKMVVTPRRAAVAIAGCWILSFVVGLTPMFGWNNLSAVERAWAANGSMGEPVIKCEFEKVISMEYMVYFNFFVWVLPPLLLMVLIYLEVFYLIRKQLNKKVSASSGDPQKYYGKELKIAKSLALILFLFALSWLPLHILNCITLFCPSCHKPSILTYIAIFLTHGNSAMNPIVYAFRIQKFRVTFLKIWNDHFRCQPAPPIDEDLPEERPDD
Chain of 5-hydroxytryptamine receptor 1B (P28222 whole entry): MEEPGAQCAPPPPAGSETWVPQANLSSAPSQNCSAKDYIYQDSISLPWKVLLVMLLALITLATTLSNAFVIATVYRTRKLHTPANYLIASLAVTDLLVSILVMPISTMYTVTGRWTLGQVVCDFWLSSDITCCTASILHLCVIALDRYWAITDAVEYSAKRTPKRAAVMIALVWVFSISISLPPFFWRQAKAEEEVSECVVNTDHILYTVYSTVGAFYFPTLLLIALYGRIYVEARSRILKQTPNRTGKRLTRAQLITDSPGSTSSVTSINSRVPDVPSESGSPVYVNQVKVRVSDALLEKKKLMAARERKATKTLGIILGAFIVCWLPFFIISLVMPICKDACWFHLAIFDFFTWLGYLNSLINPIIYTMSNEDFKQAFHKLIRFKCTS
Chain of 5-hydroxytryptamine receptor 2A (P14842 whole entry): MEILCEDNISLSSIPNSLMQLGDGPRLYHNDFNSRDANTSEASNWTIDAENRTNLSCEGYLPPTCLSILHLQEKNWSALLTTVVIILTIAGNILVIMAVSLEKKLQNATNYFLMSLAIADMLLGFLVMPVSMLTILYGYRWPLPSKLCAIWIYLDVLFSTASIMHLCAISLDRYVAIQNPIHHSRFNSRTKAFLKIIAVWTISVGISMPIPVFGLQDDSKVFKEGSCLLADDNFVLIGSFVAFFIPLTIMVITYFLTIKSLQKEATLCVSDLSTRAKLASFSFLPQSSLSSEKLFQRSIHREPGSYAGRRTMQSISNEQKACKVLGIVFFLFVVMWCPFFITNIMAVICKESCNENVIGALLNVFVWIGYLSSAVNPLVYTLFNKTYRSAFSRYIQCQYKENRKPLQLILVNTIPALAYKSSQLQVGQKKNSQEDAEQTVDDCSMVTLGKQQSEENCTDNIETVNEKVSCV
Chain of 5-hydroxytryptamine receptor 2B (P41595 whole entry): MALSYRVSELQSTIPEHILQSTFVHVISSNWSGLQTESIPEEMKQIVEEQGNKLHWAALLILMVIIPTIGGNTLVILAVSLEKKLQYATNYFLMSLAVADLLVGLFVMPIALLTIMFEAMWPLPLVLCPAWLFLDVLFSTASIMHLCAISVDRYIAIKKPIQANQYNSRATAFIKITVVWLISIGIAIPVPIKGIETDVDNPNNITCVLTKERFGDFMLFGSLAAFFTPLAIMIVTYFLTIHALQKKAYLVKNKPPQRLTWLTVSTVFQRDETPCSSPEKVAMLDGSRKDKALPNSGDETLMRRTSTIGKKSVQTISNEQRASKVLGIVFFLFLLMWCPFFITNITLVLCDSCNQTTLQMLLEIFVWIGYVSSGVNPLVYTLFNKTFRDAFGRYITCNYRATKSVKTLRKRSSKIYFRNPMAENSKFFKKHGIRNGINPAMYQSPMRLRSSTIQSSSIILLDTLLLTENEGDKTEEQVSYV

For C[C@H](N)Cn1ncc2ccc(O)cc21, the Ki [1] was 8.1 nM, the inhibition [2] was -6.96% and the IC50 [3] was 0.58 nM. It also gave an inhibition [4] of 2.48%, an inhibition [5] of 13% and an inhibition [6] of -7.73%. For the same compound, the inhibition [7] was 7.15%, the inhibition [8] was 7.7% and the inhibition [9] was 5.17%. It also gave an inhibition [10] of 9.45%, an inhibition [11] of 22.8% and an inhibition [12] of 10.4%. For the same compound, the Ki [13] was > 10000 nM, the inhibition [14] was 13.6% and the inhibition [15] was 0.07%. It also gave an inhibition [16] of 21.9%, an inhibition [17] of -8.15% and an inhibition [18] of 2.01%. It also gave an inhibition [19] of 0.44%.
